Reference: patent publication US4275072A, “2,6-Dichlorophenyl-substituted amino-imidazole derivatives and use as hypertensive agents” (priority 1979, dated 1981)

What was measured:
[1] = system: anesthetized Sprague-Dawley rats; assay: blood pressure and pulse frequency in anesthetized Sprague-Dawley rats, i.v.; type: in vivo
Protocol: The test animals are first anesthetized with urethane. […] The test substance is injected into the femoral vein.

[2] = system: Okamoto-Aoki spontaneous hypertensive rats (SHR); assay: blood pressure in unanesthetized spontaneous hypertensive rats (SHR), peroral; type: in vivo; details: 100 mg/kg p.o.
Protocol: (§1) In a further test unanesthetized Okamoto-Aoki spontaneous hypertensive rats (SHR) are used. The test derivative is administered perorally by way of a tube into the stomach. The blood pressure is measured from the tail using an indirect bloodless method.

[3] = system: gastric ulcers; assay: anti-ulcer activity: gastric ulcers induced by anti-inflammatory agents (e.g., indomethacin); type: in vivo; details: i.p., ulcers counted after three hours, fasted female rats
[4] = preliminary tests of further pharmacological activities; details: in words
[5] = anti-hypertensive activity in mammals, overall observations; details: in words; for anti-hypertensive activity: in mammals
Protocol: The anti-hypertensive properties of the imidazole derivatives of the invention may be shown by using anesthetized Sprague-Dawley rats of normal weight. The test animals are first anesthetized with urethane. After this the femoral artery is connected by way of a polyethylene tube with a blood pressure transducer. The test substance is injected into the femoral vein. The blood pressure and the pulse frequency are registered with a recorder.
as §1

[6] = in words; prior art; cited from earlier work
[7] = system: rats; assay: toxicity (LD50) in rats; type: in vivo; details: in words
[8] = system: Sprague-Dawley male rats; assay: diuretic effect: urine volume in rats after intraperitoneal injection; type: in vivo; details: for Mean Cumulative Volume of Urine, 0-1 hours / Mean Cumulative Volume of Urine, 0-2 hours / Mean Cumulative Volume of Urine, 0-3 hours / Mean Cumulative Volume of Urine, 0-4 hours / Mean Cumulative Volume of Urine, 0-5 hours: 2 mg/kg intraperitoneally, 6 rats, 10 ml water by gastric tube; for Mean Cumulative Volume of Urine, 0-1 hours: saline control 1.1; for Mean Cumulative Volume of Urine, 0-2 hours: saline control 7.2; for Mean Cumulative Volume of Urine, 0-3 hours: saline control 11.4; for Mean Cumulative Volume of Urine, 0-4 hours / Mean Cumulative Volume of Urine, 0-5 hours: saline control 13.5; for diuretic activity: in words
Protocol: The diuretic effect of the intermediates may be studied by injecting the compounds intraperitoneally to adult Sprague-Dawley male rats after an overnight fast. Simultaneously, 10 ml of water is fed to each rat through a gastric tube.

Cc1cn(-c2c(Cl)cccc2Cl)c(N)n1 [compound I, 1-(2',6'-dichlorophenyl)-2-amino-4-methyl-imidazole]
Average reduction of blood pressure ([1]; 10 mg/kg i.v.): 25% | Average reduction of pulse frequency ([1]; 10 mg/kg i.v.): 20% | Average reduction of blood pressure ([1]; 3,3 mg/kg i.v.): 20% | Average reduction of blood pressure [2]: 35% | minimal effective dose ([3]; Rattus norvegicus, ip, 3 h, doses as small as, read-out: smallest dose effective in reducing the number of ulcers): 1 mg/kg | dose that prevents the formation of gastric ulcers [3]: ~20 mg/kg | analgesic activity [4]: analgesic | anti-arrhythmic activity [4]: anti-arrhythmic activity | anti-convulsant activity [4]: anti-convulsant | anti-depressant activity [4]: anti-depressant | anti-inflammatory activity [4]: anti-inflammatory | anti-ulcer activity [4]: anti-ulcer | anti-hypertensive activity [5]: excellent anti-hypertensive activity | reduction of the blood pressure, character and duration [5]: smooth and of relatively long duration | temporary rise of the blood pressure at the beginning of the administration [5]: No temporary rise of the blood pressure is observed

Clc1cccc(Cl)c1N=C1NCCN1 [clonidine, 2-(2,6-dichloroanilino)-2-imidazoline]
temporary rise of the blood pressure at the beginning of administration [6]: temporary rise in blood pressure at the beginning of administration

Cc1c[nH]c(Nc2c(Cl)cccc2Cl)n1 [compound II, 2-(2',6'-dichloroanilino)-4-methyl-imidazole]
Average reduction of blood pressure ([1]; 10 mg/kg i.v.): 25% | toxicity [7]: low toxicity | analgesic activity [4]: analgesic | anti-arrhythmic activity [4]: anti-arrhythmic activity | anti-convulsant activity [4]: anti-convulsant | anti-depressant activity [4]: anti-depressant | anti-inflammatory activity [4]: anti-inflammatory | anti-ulcer activity [4]: anti-ulcer | anti-hypertensive activity [5]: excellent anti-hypertensive activity | reduction of the blood pressure, character and duration [5]: smooth and of relatively long duration | temporary rise of the blood pressure at the beginning of the administration [5]: No temporary rise of the blood pressure is observed

CCOC(=O)Cc1c[nH]c(Nc2c(Cl)cccc2Cl)n1 [Compound IIb, 4-[2-(2',6'-dichloroanilino)]-imidazoleacetic acid ethyl ester]
Mean Cumulative Volume of Urine, 0-1 hours [8]: 3.4 mL | Mean Cumulative Volume of Urine, 0-2 hours [8]: 9.5 mL | Mean Cumulative Volume of Urine, 0-3 hours [8]: 13.4 mL | Mean Cumulative Volume of Urine, 0-4 hours [8]: 14.4 mL | Mean Cumulative Volume of Urine, 0-5 hours [8]: 14.4 mL

O=C(O)Cc1c[nH]c(Nc2c(Cl)cccc2Cl)n1 [Compound IIa, 4-[2-(2',6'-dichloroanilino)]-imidazoleacetic acid]
Mean Cumulative Volume of Urine, 0-1 hours [8]: 1.3 mL | Mean Cumulative Volume of Urine, 0-2 hours [8]: 8.1 mL | Mean Cumulative Volume of Urine, 0-3 hours [8]: 12.9 mL | Mean Cumulative Volume of Urine, 0-4 hours [8]: 14.3 mL | Mean Cumulative Volume of Urine, 0-5 hours [8]: 14.9 mL | diuretic activity [8]: significant diuretic activity

CCOC(=O)Cc1cn(-c2c(Cl)cccc2Cl)c(N)n1 [Compound Ib, 4-[1-(2',6'-dichlorophenyl)-2-amino]-imidazoleacetic acid ethyl ester]
Mean Cumulative Volume of Urine, 0-1 hours [8]: 2.3 mL | Mean Cumulative Volume of Urine, 0-2 hours [8]: 10.9 mL | Mean Cumulative Volume of Urine, 0-3 hours [8]: 12.3 mL | Mean Cumulative Volume of Urine, 0-4 hours [8]: 14.5 mL | Mean Cumulative Volume of Urine, 0-5 hours [8]: 15.7 mL

Nc1nc(CC(=O)O)cn1-c1c(Cl)cccc1Cl [Compound Ia, 4-[1-(2',6'-dichlorophenyl)-2-amino]-imidazoleacetic acid]
Mean Cumulative Volume of Urine, 0-1 hours [8]: 2.6 mL | Mean Cumulative Volume of Urine, 0-2 hours [8]: 10.2 mL | Mean Cumulative Volume of Urine, 0-3 hours [8]: 13.9 mL | Mean Cumulative Volume of Urine, 0-4 hours [8]: 14.7 mL | Mean Cumulative Volume of Urine, 0-5 hours [8]: 16.4 mL | diuretic activity [8]: significant diuretic activity
